# Data taken from PMC7044277 (Nature Communications, 2020).
# Several values for one entry are separate records, joined by “and”; a condition that tells them apart may be missing. Equal entries are not always repeated.
# Key:
# Type in all cases: cell-based
# [1] = biological target: T1, 320 non-olfactory GPCRs (Homo sapiens, UniProt P29274)
# T1 construct: expressed in transfected cells; host or cells: HTLA cells
# [2] = biological target: T2, 320 non-olfactory GPCRs (Homo sapiens, UniProt P30559); details: receptor OXTR; replicate values, Fig_4g
# T2 construct: expressed in transfected cells; host or cells: HTLA cells
# [3] = biological target: 320 non-olfactory GPCRs (Homo sapiens, UniProt P35414)
# [4] = biological target: T3, 320 non-olfactory GPCRs (Homo sapiens, UniProt Q99788)
# T3 construct: expressed in transfected cells; host or cells: HTLA cells
# 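Throughout, for Fold of Basal: compound tested at 1 µM final concentration.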
# 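Throughout, for GPCRome agonism screen response: fold over basal response of each receptor without drug.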
# 320 non-olfactory GPCRs (Homo sapiens, UniProt P35414), sequence (P35414 whole entry): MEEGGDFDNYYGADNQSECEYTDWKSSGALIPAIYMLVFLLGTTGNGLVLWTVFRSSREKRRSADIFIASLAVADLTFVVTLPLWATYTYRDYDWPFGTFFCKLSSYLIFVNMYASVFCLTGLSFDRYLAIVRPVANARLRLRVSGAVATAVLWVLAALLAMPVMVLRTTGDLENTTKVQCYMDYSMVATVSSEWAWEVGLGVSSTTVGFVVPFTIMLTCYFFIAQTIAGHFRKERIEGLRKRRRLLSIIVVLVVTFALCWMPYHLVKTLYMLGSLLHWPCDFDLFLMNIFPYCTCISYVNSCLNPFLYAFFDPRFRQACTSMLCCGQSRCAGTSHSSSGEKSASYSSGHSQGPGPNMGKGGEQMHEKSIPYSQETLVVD
# T1 sequence (P29274 whole entry): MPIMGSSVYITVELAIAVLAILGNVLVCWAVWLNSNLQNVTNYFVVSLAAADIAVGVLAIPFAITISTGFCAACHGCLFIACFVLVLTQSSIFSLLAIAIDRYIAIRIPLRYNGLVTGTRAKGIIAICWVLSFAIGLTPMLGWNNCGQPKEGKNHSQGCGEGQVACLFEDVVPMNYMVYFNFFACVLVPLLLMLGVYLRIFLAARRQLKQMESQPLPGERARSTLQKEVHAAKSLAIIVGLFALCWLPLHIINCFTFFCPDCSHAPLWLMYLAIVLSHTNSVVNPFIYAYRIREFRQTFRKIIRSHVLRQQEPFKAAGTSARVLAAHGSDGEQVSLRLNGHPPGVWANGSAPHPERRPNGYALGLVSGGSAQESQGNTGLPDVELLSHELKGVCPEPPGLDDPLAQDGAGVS
# T3 sequence (Q99788 whole entry): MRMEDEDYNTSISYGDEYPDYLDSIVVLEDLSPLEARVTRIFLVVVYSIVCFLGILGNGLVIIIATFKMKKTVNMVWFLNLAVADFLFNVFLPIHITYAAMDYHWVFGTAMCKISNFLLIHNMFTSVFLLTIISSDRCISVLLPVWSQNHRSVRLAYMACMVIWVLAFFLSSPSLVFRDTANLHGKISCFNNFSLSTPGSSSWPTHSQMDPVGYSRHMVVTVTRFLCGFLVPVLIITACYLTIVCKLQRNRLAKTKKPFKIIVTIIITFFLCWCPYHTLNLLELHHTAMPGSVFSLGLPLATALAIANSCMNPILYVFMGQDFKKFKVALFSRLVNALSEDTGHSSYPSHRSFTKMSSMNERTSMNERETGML
# T2 sequence (P30559 whole entry): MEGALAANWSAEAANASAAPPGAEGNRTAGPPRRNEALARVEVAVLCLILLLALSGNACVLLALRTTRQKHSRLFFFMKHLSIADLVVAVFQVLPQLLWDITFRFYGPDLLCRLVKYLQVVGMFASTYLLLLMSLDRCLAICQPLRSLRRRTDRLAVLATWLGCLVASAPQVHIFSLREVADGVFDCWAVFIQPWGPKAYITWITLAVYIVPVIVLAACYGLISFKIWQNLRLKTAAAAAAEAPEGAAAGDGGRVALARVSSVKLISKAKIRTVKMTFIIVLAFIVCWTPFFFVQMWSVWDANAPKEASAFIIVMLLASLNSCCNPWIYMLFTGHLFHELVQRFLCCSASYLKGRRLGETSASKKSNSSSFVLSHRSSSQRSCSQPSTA
compound,measurement,setting,value
CCOc1cccc2cc(C(C)NCC3(O)CCCCC3)oc12 (stereo not shown) [O4LE6],Fold of Basal,[1],0.5279 and 0.6435 and 0.5264 and 0.5735
same,GPCRome agonism screen response,[2],1.578 and 1.894 and 1.457 and 1.467
same,Fold of Basal,[3],1.057 and 1.1216 and 0.9447 and 1.032
same,Fold of Basal,[4],0.9321 and 1.173 and 0.7369 and 1.152
